# From patent publication US11660293B2, “Substituted 2-azabicyclo[3.1.1]heptane and 2-azabicyclo[3.2.1]octane derivatives as orexin receptor antagonists” (Chronos Therapeutics Limited, priority 2017, dated 2023)
# Tests used:
# [1] = molecular target: human Orexin type 2 receptors (Homo sapiens (Human), UniProt O43614); assay: Scintillation Proximity Assay (SPA) binding assay, [3H]EMPA displacement, HEK-hOX2 membranes
# Experimental: Scintillation Proximity Assay (SPA) Binding Assays
# CHO cells stably transfected with human Orexin type 1 receptors (CHO-hOX1) or HEK-293 cells transiently transfected with human Orexin type 2 receptors (HEK-hOX2) were collected after 16 h induction with 5 mM sodium butyrate. The cell pellets were re-suspended, homogenized in 15 mM Tris/HCl pH=7.5, 1 mM EGTA, 0.3 mM EDTA, 2 mM MgCl2, protease inhibitors and centrifuged at 40,000 g (20 min, 4° C.). After re-suspension, homogenization and centrifugation as above, the final pellets were re-suspended in 75 mM Tris/HCl pH=7.5, 1 mM EGTA, 0.3 mM EDTA, 12.5 mM MgCl2, 250 mM Sucrose, protease inhibitors, divided into aliquots and frozen down at −80° C.
# CHO-hOX1 cell membranes (6 μg ml^−1) or HEK-hOX2 membranes (8 μg ml^−1) were pre-coupled with 1.0 mg ml^−1 of Wheatgerm Agglutinin-coated Yttrium Silicate (YSi-WGA) SPA beads (Perkin Elmer) in buffer containing 25 mM HEPES pH=7.4, 1 mM CaCl2), 5 mM MgCl2, 0.01% (w/v) BSA, 0.02% (w/v) Pluronic F-127 by shaking at room temperature for 2.5-3 h.
# (§1) The binding was performed in a final volume of 200 μl. 100 μl of hOX1 or hOX2 beads-membranes suspension were added to 100 μl of [^3H]SB-674042 or [^3H]EMPA solutions (radioligand concentration 2 nM final in the assay), into the 96-well Isoplates containing the 2 μl/well of compounds to be tested. Nonspecific binding was measured in the presence of 1 μM Almorexant. Assay plates were then incubated at room temperature for 3 h before being counted in a Microbeta scintillation counter (PerkinElmer).
# Data were analysed by non-linear regression analysis using XLfit Software.
# [2] = molecular target: human Orexin type 1 receptors (Homo sapiens (Human), UniProt O43613); assay: Scintillation Proximity Assay (SPA) binding assay, [3H]SB-674042 displacement, CHO-hOX1 membranes
# Experimental: as §1, with “Scintillation Proximity Assay (SPA) Binding Assays CHO cells stably transfected with human Orexin type 1 receptors (CHO-hOX1) or HEK-293 cells transiently transfected with human Orexin type 2 receptors (HEK-hOX2) were collected after 16 h induction with 5 mM sodium butyrate. […] The” for “The”, “(PerkinElmer). Data were analysed by non-linear regression analysis using XLfit Software.” for “(PerkinElmer).”
# Sequence of human Orexin type 2 receptors (O43614 whole entry): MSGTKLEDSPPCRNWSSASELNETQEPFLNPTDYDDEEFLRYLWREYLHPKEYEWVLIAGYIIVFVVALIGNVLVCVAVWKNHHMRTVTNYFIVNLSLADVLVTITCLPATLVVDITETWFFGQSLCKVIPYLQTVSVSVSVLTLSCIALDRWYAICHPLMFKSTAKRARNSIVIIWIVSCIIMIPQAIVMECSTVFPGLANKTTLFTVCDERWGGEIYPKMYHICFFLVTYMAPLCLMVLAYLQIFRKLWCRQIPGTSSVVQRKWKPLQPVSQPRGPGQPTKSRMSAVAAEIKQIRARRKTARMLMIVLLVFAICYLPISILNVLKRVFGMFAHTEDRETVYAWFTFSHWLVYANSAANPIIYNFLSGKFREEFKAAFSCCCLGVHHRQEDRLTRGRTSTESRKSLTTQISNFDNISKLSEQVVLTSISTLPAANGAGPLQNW
# Sequence of human Orexin type 1 receptors (O43613 whole entry): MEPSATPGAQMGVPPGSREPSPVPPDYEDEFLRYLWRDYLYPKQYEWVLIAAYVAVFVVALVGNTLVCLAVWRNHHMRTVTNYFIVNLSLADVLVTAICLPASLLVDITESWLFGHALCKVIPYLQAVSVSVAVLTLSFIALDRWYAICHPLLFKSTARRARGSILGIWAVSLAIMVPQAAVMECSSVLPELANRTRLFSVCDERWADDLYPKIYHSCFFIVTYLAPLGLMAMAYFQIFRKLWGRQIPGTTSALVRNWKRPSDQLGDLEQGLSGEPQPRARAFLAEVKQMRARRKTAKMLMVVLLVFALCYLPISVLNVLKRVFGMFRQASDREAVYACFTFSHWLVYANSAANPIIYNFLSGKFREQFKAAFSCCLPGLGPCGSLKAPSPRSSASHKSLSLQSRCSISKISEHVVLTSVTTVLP
Structure (SMILES),"OX2 pKi (SPA binding) ([1]; Table 2, [3H]EMPA 2 nM)","OX1 pKi (SPA binding) ([2]; Table 2, [3H]SB-674042 2 nM)",further results
"Cc1ccc(-n2nccn2)c(C(=O)N2C3CC(C3)[C@H](C)C2COc2ccc(F)cc2)c1 (stereo partly drawn) [Example 109, trans-3-[(4-fluorophenoxy)methyl]-4-methyl-2-[5-methyl-2-(2H-1,2,3-triazol-2-yl)benzoyl]-2-azabicyclo[3.1.1]heptane]",–,–,"OX2 pKi (SPA binding) ([1]; Table 1, [3H]EMPA 2 nM): 5.89; OX1 pKi (SPA binding) ([2]; Table 1, [3H]SB-674042 2 nM): 7.51"
"C[C@@H]1C2CC(C2)N(C(=O)c2cc(Cl)ccc2-n2nccn2)C1CNc1nc2cccnc2o1 (single isomer, unassigned) [Example 244, N-{[(3R,4S) or (3S,4R)-2-[5-chloro-2-(2H-1,2,3-triazol-2-yl)benzoyl]-4-methyl-2-azabicyclo[3.1.1]heptan-3-yl]methyl}-[1,3]oxazolo[5,4-b]pyridin-2-amine]",5.18,8.25,–
"Cc1nc(C(=O)N2C3CC(C3)[C@@H](C)[C@@H]2COc2cc3ccccc3cn2)c(-c2ccccc2)s1 (single isomer, unassigned) [Example 86, 3-{[(3R,4R or 3S,4S)-4-methyl-2-(2-methyl-5-phenyl-1,3-thiazole-4-carbonyl)-2-azabicyclo[3.1.1]heptan-3-yl]methoxy}isoquinoline]",–,–,"Ki ([1]; Table 1, [3H]EMPA 2 nM, read-out: OX2 pKi (SPA binding) (converted)): 1290 nM; Ki ([2]; Table 1, [3H]SB-674042 2 nM, read-out: OX1 pKi (SPA binding) (converted)): 89.1 nM"
"C[C@@H]1C2CC(C2)N(C(=O)c2cc(C#N)ccc2-n2nccn2)C1COc1ccc(F)cc1 (mixture of isomers) [Example 142, cis-3-{3-[(4-fluorophenoxy)methyl]-4-methyl-2-azabicyclo[3.1.1]heptane-2-carbonyl}-4-(2H-1,2,3-triazol-2-yl)benzonitrile]",6.33,7,–
"Cc1ccc(-n2nccn2)c(C(=O)N2C3CC(C3)[C@@H](C)C2CNc2cnc3ccccc3n2)n1 (single isomer, unassigned) [Example 159, N-{[(3S,4R) or (3R,4S)-4-methyl-2-[6-methyl-3-(2H-1,2,3-triazol-2-yl)pyridine-2-carbonyl]-2-azabicyclo[3.1.1]heptan-3-yl]methyl}quinoxalin-2-amine]",4.59,6.84,–
C[C@@H]1C2CC(C2)N(C(=O)c2c(F)cccc2-n2nccn2)C1CNc1cnc(C(F)(F)F)cn1 (stereo partly shown) [Example 253],5,7.88,–
Cc1nc(C(=O)N2C(COc3cnc4ccccc4n3)CC3CC2C3)c(-c2ccccc2)s1 (stereo not shown) [Example 58],–,–,"OX2 pKi (SPA binding) ([1]; Table 1, [3H]EMPA 2 nM): 6.76; OX1 pKi (SPA binding) ([2]; Table 1, [3H]SB-674042 2 nM): 7.4"
"Cc1ccc(-n2nccn2)c(C(=O)N2C3CC(C3)[C@@H](C)C2CNc2ncc(C(F)(F)F)cn2)n1 (single isomer, unassigned) [Example 194, N-{[(3S,4R) or (3R,4S)-4-methyl-2-[6-methyl-3-(2H-1,2,3-triazol-2-yl)pyridine-2-carbonyl]-2-azabicyclo[3.1.1]heptan-3-yl]methyl}-5-(trifluoromethyl)pyrimidin-2-amine]",4.66,7.51,–
"Cc1nc(C(=O)N2C3CC(C3)[C@H](C)C2COc2ccc(F)cc2)c(-n2nccn2)s1 (mixture of isomers) [Example 126, trans-3-[(4-fluorophenoxy)methyl]-4-methyl-2-[2-methyl-5-(2H-1,2,3-triazol-2-yl)-1,3-thiazole-4-carbonyl]-2-azabicyclo[3.1.1]heptane]",5.7,7.39,–
Cc1nc(C(=O)N2C(COc3cc4ccccc4cn3)CC3CC2C3)c(-c2ccccc2)s1 (stereo not shown) [Example 38],–,–,"OX2 pKi (SPA binding) ([1]; Table 1, [3H]EMPA 2 nM): 6.9; OX1 pKi (SPA binding) ([2]; Table 1, [3H]SB-674042 2 nM): 7.61"
"Cc1nc(C(=O)N2C(CNc3nc4ccc(F)cc4s3)CC3CC2C3)c(-c2ccccc2)s1 (stereo not shown) [Example 61, 6-fluoro-N-{[2-(2-methyl-5-phenyl-1,3-thiazole-4-carbonyl)-2-azabicyclo[3.1.1]heptan-3-yl]methyl}-1,3-benzothiazol-2-amine]",–,–,"OX2 pKi (SPA binding) ([1]; Table 1, [3H]EMPA 2 nM): 8.03; OX1 pKi (SPA binding) ([2]; Table 1, [3H]SB-674042 2 nM): 9.12"
"C[C@@H]1C2CC(C2)N(C(=O)c2cc(F)ccc2-n2nccn2)C1CNc1cnc2ccccc2n1 (mixture of isomers) [Example 187, cis-N-({2-[5-fluoro-2-(2H-1,2,3-triazol-2-yl)benzoyl]-4-methyl-2-azabicyclo[3.1.1]heptan-3-yl}methyl)quinoxalin-2-amine]",5.63,8.19,–
"Cc1nc(C(=O)N2[C@H]3C[C@H](C3)[C@@H](C)[C@H]2COc2ccc(F)cc2)c(-c2ccccn2)s1 (racemic) [Example 132, cis-3-[(4-fluorophenoxy)methyl]-4-methyl-2-[2-methyl-5-(pyridin-2-yl)-1,3-thiazole-4-carbonyl]-2-azabicyclo[3.1.1]heptane]",6.72,7.97,–
"C[C@@H]1C2CC(C2)N(C(=O)c2cc(F)ccc2-n2nccn2)C1CNc1nc2ccc(F)cc2s1 (single isomer, unassigned) [Example 170, 6-fluoro-N-({(3R,4S) or (3S,4R)2-[5-fluoro-2-(2H-1,2,3-triazol-2-yl)benzoyl]-4-methyl-2-azabicyclo[3.1.1]heptan-3-yl}methyl)-1,3-benzothiazol-2-amine]",5.99,8.86,–
C[C@@H]1C2CC(C2)N(C(=O)c2cc(F)ccc2-n2nccn2)C1CNc1ncc(C2CC2)cn1 (stereo partly shown) [Example 260],4.89,7.45,–
"Cc1ccc(-n2nccn2)c(C(=O)N2C3CC(C3)[C@@H](C)C2CNc2nc3ccccc3o2)n1 (single isomer, unassigned) [Example 226, N-{[(3S,4R) or (3R,3S)-4-methyl-2-[6-methyl-3-(2H-1,2,3-triazol-2-yl)pyridine-2-carbonyl]-2-azabicyclo[3.1.1]heptan-3-yl]methyl}-1,3-benzoxazol-2-amine]",5.39,8.46,–
"Cc1ccc(-n2nccn2)c(C(=O)N2C3CC(C3)[C@@H](C)C2CNc2nc3ccc(F)cc3o2)n1 (mixture of isomers) [Example 218, cis-6-fluoro-N-({4-methyl-2-[6-methyl-3-(2H-1,2,3-triazol-2-yl)pyridine-2-carbonyl]-2-azabicyclo[3.1.1]heptan-3-yl}methyl)-1,3-benzoxazol-2-amine]",5.47,8.33,–
"C[C@@H]1C2CC(C2)N(C(=O)c2cc(Cl)ccc2-n2nccn2)C1CNc1cnc2cc(F)ccc2n1 (single isomer, unassigned) [Example 209, N-{[(3R,4R) or (3S,4R)-2-[5-chloro-2-(2H-1,2,3-triazol-2-yl)benzoyl]-4-methyl-2-azabicyclo[3.1.1]heptan-3-yl]methyl}-6-fluoroquinoxalin-2-amine]",6.8,8.74,–
Cc1nc(C(=O)N2C(COc3ccc(Br)cc3)CC3CC2C3)c(-c2ccccc2)s1 (stereo not shown) [Example 46],–,–,"OX2 pKi (SPA binding) ([1]; Table 1, [3H]EMPA 2 nM): 6.51; OX1 pKi (SPA binding) ([2]; Table 1, [3H]SB-674042 2 nM): 7.62"
Cc1nc(C(=O)N2C(COc3ccc(F)c(F)c3)CC3CC2C3)c(-c2ccccc2)s1 (stereo not shown) [Example 47],–,–,"OX2 pKi (SPA binding) ([1]; Table 1, [3H]EMPA 2 nM): 6.91; OX1 pKi (SPA binding) ([2]; Table 1, [3H]SB-674042 2 nM): 7.61"
"C[C@@H]1C2CC(C2)N(C(=O)c2cc(Cl)ccc2-n2nccn2)C1CNc1cnc2ncccc2n1 (mixture of isomers) [Example 206, cis-N-({2-[5-chloro-2-(2H-1,2,3-triazol-2-yl)benzoyl]-4-methyl-2-azabicyclo[3.1.1]heptan-3-yl}methyl)pyrido[2,3-b]pyrazin-2-amine]",5.06,7.79,–
Cc1ccc(-n2nccn2)c(C(=O)N2C3CC(C3)[C@H](C)C2CNc2nc3ccc(F)cc3s2)n1 (stereo partly shown) [Example 147],6.66,7.57,–
"C[C@@H]1C2CC(C2)N(C(=O)c2cc(Cl)ccc2-n2nccn2)C1CNc1ccc(C(F)(F)F)nn1 (stereo partly drawn) [Example 247, cis-N-({2-[5-chloro-2-(2H-1,2,3-triazol-2-yl)benzoyl]-4-methyl-2-azabicyclo[3.1.1]heptan-3-yl}methyl)-6-(trifluoromethyl)pyridazin-3-amine]",4.88,6.74,–
